Laboratory results published in BigSolDB 2.1.

COC(=O)[C@H](c1ccccc1Cl)N1CCc2sccc2C1.O=S(=O)(O)O
solubility (mole fraction)
Conditions	273.15 K	278.15 K	283.15 K	288.15 K	293.15 K	298.15 K	303.15 K	308.15 K
in MTBE	6.2e-05	6.5e-05	7.5e-05	8.6e-05	0.000101	0.00011	0.000122	0.000125
in acetone	0.0188	0.0262	0.0339	0.0436	0.0474	0.0567	0.0672	0.076
in ethyl acetate	0.000278	0.000325	0.000342	0.000401	0.000457	0.000511	0.000543	0.000619
in isopropanol	0.00815	0.0113	0.0132	0.0198	0.0237	0.0305	0.0382	0.0463
in methyl acetate	0.000959	0.00103	0.00112	0.00122	0.00133	0.00151	0.00188	0.00214
in n-butanol	0.0502	0.056	0.0655	0.0686	0.0771	0.08	0.0869	0.0952
in sec-butanol	0.00377	0.00528	0.00678	0.00961	0.0127	0.016	0.0191	0.0238
